From article PMC9960331, “Antioxidant and Anticancer Potential of the New Cu(II) Complexes Bearing Imine-Phenolate Ligands with Pendant Amine N-Donor Groups” (Pharmaceutics, 2023)
Where two headings read alike, the source gives them in different places.

How the values were obtained:
[1] = DPPH radical scavenging assay; assay type: biochemical; conditions: for Antioxidant ability in the DPPH radical capture assay: test doses 1-200 µM
Text: (§1) Both colorimetric assays are being used to estimate the radical scavenging capacity of organic and inorganic compounds [71, 72]. When DPPH reacts with an antioxidant compound, its free radical property is lost, and its color changes from violet to yellow. In the presence of an antioxidant, the ABTS radical, which has a strong absorption band at 734 nm, will be scavenged, and the reaction mixture will turn from blue to green. The results are expressed as a percentage of inhibition of DPPH radical or ABTS^+ radical when compared to samples from the control group (DMSO) without the compounds/standard (0% of radical inhibition). The experiment was repeated three times at each concentration.
DPPH assay: To determine the 1,1-diphenylpicrylhydrazyl (DPPH) radical scavenging activity, different concentrations of compounds (1, 5, 10, 50, 100, and 200 μM) were mixed with a methanolic solution of 0.1 mM DPPH radical for 30 min at 30 °C in the dark. The absorbance of the mixture was measured spectrophotometrically at 517 nm. The coloration change of the DPPH ethanolic solution from deep purple to yellow indicates the presence of antioxidants and then the free radical scavenging effect of these compounds. The ascorbic acid at 1, 10, 100, and 200 µM was used as a positive control to determine the maximal decrease in the DPPH absorbance. The percentage of DPPH radical scavenging activity was calculated by the following equation:% DPPH radical scavenging activity = {(A0 − A1)/A0} × 100 where A0 is the absorbance of the control, and A1 is the absorbance of the compounds/standard.

[2] = ABTS radical cation scavenging assay; assay type: biochemical
Text: as §1
The radical cation ABTS was previously generated with sodium persulfate in the presence of potassium phosphate buffer. Briefly, the ABTS solution diluted in a phosphate buffer saline pH 7.4 was mixed with an aliquot of the compound for 30 min at room temperature in the dark. The ascorbic acid at 1, 10, 100, and 200 µM was used as a positive control to determine the maximal decrease in the ABTS^+ absorbance. The color reaction was measured at 730 nm and the results were expressed as a percentage (%) of the control. The ABTS radical scavenging capacity was calculated by the following equation: % ABTS^+ radical scavenging activity = {(A0 − A1)/A0} × 100 where A0 indicates the absorbance of the blank and A1 indicates the absorbance in the presence of the test sample.

V79 cells = assay: MTT cell viability assay, V79 cells; assay type: cell-based, Chinese hamster; conditions: Cricetulus griseus, V79, 24 h; read-out: IC50 V79 cell line
Procedure: (§2) Chinese hamster lung fibroblast (V79) cells and human cell lines [MCF-7 (breast adenocarcinoma), SW620 (colorectal adenocarcinoma), and MRC-5 (normal lung fibroblast)] were obtained from the Rio de Janeiro Cell Bank (Rio de Janeiro, RJ, Brazil). The cell lines were grown in DMEM supplemented with 10% heat-inactivated FBS or RPMI-1640 supplemented with 20% FBS, 0.2 mg/mL L-glutamine, 100 IU/mL penicillin, and 100 µg/mL streptomycin. Cells were kept in tissue culture flasks at 37 °C in a humidified atmosphere containing 5% CO2 and were harvested by treatment with 0.15% trypsin −0.08% EDTA in PBS.
The cytotoxic potential of all compounds was measured by the methylthiazol tetrazolium (MTT) assay in Chinese hamster lung fibroblasts and human cell lines. Cell lines were cultured in a 96-well plate (1 × 10^4 cells/well) in complete media. […] The activity of this solvent alone was measured by a blank sample solution containing the same amount of DMSO. After the exposure period, the culture media were replaced with the addition of 100 µL serum-free media containing the 3-(4,5-dimethylthiazol-2-yl)-2,5-diphenyltetrazolium bromide) (MTT) dye (1 mg/mL), and incubated for 3 h at 37 °C After incubation, the supernatant was removed, the residual purple formazan product was solubilized in 150 µL DMSO, and its absorbance was measured at 570 nm. […]

[3] = test system: MRC-5 (normal lung fibroblast); assay: MTT cell viability assay, MRC-5; assay type: cell-based, human; conditions: for Concentration at which cytotoxicity starts, MRC-5: 24 h and 72 h; for IC50: Homo sapiens
Procedure: as §2
(§3) The cytotoxic potential of all compounds was measured by the methylthiazol tetrazolium (MTT) assay in Chinese hamster lung fibroblasts and human cell lines. Cell lines were cultured in a 96-well plate (1 × 10^4 cells/well) in complete media. V79 cells were treated for 24 h with all compounds at concentrations of 1, 10, 50 and100 µM. […] All compounds were dissolved in DMSO and added to the medium to reach the desired concentrations (0.1% of DMSO). The activity of this solvent alone was measured by a blank sample solution containing the same amount of DMSO. After the exposure period, the culture media were replaced with the addition of 100 µL serum-free media containing the 3-(4,5-dimethylthiazol-2-yl)-2,5-diphenyltetrazolium bromide) (MTT) dye (1 mg/mL), and incubated for 3 h at 37 °C After incubation, the supernatant was removed, the residual purple formazan product was solubilized in 150 µL DMSO, and its absorbance was measured at 570 nm. The assay was performed in triplicate.

[4] = test system: SW620 (colorectal adenocarcinoma); assay: MTT cell viability assay, SW620; assay type: cell-based, human; conditions: for Concentration at which cytotoxicity starts, SW620: 24 h and 72 h; for IC50: Homo sapiens
Procedure: as §2, §3

[5] = test system: MCF-7 (breast adenocarcinoma); assay: MTT cell viability assay, MCF-7; assay type: cell-based, human; conditions: for Concentration at which cytotoxicity starts, MCF-7: 24 h and 72 h; for IC50: Homo sapiens
Procedure: as §2, §3

MCF-7 [6] = assay: Clonogenic assay, MCF-7; assay type: cell-based, human; conditions: 72 h treatment
Procedure: (§4) MCF-7, MRC-5, and SW620 human cell lines were seeded in 6-well plates at a density of 300 cells per well containing 1 mL of medium. […] The cell culture medium was changed to a new medium every 2 days. Cells were washed twice with PBS and fixed with methanol for 30 min, followed by staining with 0.5% crystal violet. The assay was performed in triplicate. Colonies were manually counted, and colony survival was presented as a percentage relative to the respective negative control.

SW620 [7] = assay: Clonogenic assay, SW620; assay type: cell-based, human; conditions: 72 h treatment
Procedure: as §4

MRC-5 [8] = assay: Alkaline comet assay, MRC-5; assay type: cell-based, human; conditions: for Damage Índex (DI) ± SD, MRC-5: 3 h
Procedure: (§5) For genotoxicity assays, 1.0 × 10^4 cells were seeded on twenty-four-well plates and incubated for 24 h. […] Each dose was evaluated by three independent experiments. The alkaline comet assay was performed as described by Singh et al.. Following treatment, cells were trypsinized and resuspended in a complete medium. Slides were prepared with 20 μL of cellular suspension and were dissolved in 0.75% low melting-point agarose. Slides were immersed in cold lysis buffer (2.5 M NaCl, 100 mM EDTA, 10 mM Tris, 1% Triton X-100, 10% DMSO, pH 10) for at least 1 h. Slides were placed in an electrophoresis chamber with cold alkaline buffer (300 mM NaOH and 1 mM de EDTA, pH > 13) to unwind the DNA. Electrophoresis was performed at 0.7 V/cm, 300 mA for 30 min at 4 °C. Slides were then neutralized with Tris–HCl buffer (pH 7.5) for 15 min and stored at room temperature. Slides were stained with silver staining protocol. The gels were then left to dry overnight at room temperature before being analyzed. From two replicate slides, 100 cells were selected and analyzed for DNA migration. Migration of DNA fragments was determined according to comet class as described by Azqueta: class 0, intact nuclei, without tail; class 1, nuclei with tail less than the diameter of the nucleus; class 2, tail size varying between one and two times the diameter of the nucleus; class 3, tail size varying between two and three times the diameter of the nucleus; and class 4, tail size more than three times the diameter of the nucleus but with the head and tail of the comet still distinguishable. The DI ranges from 0 (100 completely undamaged cells × 0) to 400 (100 cells with maximum damage × 4).

MCF-7 [9] = assay: Alkaline comet assay, MCF-7; assay type: cell-based, human; conditions: for Damage Índex (DI) ± SD, MCF-7: 3 h
Procedure: as §5

SW620 [10] = assay: Alkaline comet assay, SW620; assay type: cell-based, human; conditions: for Damage Índex (DI) ± SD, SW620: 3 h
Procedure: as §5

MRC-5 [11] = assay: Clonogenic assay, MRC-5; assay type: cell-based, human; conditions: 72 h treatment; general statement covers MCF-7, SW620 and MRC-5
Procedure: as §4

[12] = test system: SW620 (colorectal adenocarcinoma); conditions: 72 h; cited from earlier work
[13] = test system: MCF-7 (breast adenocarcinoma); set-up: method as in PMID 36592511; conditions: 72 h; cited from earlier work

Row | IC50 ([4]; SW-620, 24 h) | IC50 ([4]; SW-620, 72 h) | IC50 ([5]; MCF7, 24 h) | IC50 ([5]; MCF7, 72 h) | SMILES | Antioxidant ability in the DPPH radical capture assay [1] | IC50 (V79 cells) | Concentration at which cytotoxicity starts, MRC-5 [3] | IC50 ([3]; MRC5, 24 h) | IC50 ([3]; MRC5, 72 h) | Concentration at which cytotoxicity starts, SW620 [4] | Concentration at which cytotoxicity starts, MCF-7 [5] | Inhibition of colony survival, SW620 compared with MRC-5 (SW620 [7]) | Concentrations that increase damage index (DI), MRC-5 (MRC-5 [8]) | Damage Índex (DI) ± SD, MRC-5 (MRC-5 [8]; 1 μM) | Damage Índex (DI) ± SD, MRC-5 (MRC-5 [8]; 10 μM) | Damage Índex (DI) ± SD, MRC-5 (MRC-5 [8]; 50 μM) | Damage Índex (DI) ± SD, MRC-5 (MRC-5 [8]; 100 μM) | Concentrations that increase damage index (DI), MCF-7 (MCF-7 [9]) | Damage Índex (DI) ± SD, MCF-7 (MCF-7 [9]; 1 μM) | Damage Índex (DI) ± SD, MCF-7 (MCF-7 [9]; 10 μM) | further results
1 | 27.6 ± 1.2 µM | 16.4 µM | 30.5 ± 4.4 µM | 28.6 µM | CC(C)(C)c1cc(/C=N/CCNc2ccccc2)c(O)c(C(C)(C)C)c1 [1a] | inability to be antioxidants | 23 µM | 10 µM | 14.7 ± 1.1 µM | 17.1 µM | 10 µM | 10 µM | not selective | 10 to 100 µM | 19.3 ± 3.9 | 39.7 ± 9.5 | 121.3 ± 10.0 | 200.3 ± 22.0 | 10 to 100 µM | 14.7 ± 3.2 | 34.3 ± 4.2 | Concentration from which ABTS+ radical scavenging activity is present [2]: 5 µM; Imax (% of maximal inhibition), ABTS+ [2]: up to 87%; IC50 ([2]; concentration to decrease 50% of ABTS+ radical formation): 7.5 ± 2.2 µM; Inhibition of colony survival, MCF-7 compared with MRC-5 (MCF-7 [6]): not selective; Damage Índex (DI) ± SD, MCF-7 (MCF-7 [9]; 50 μM): 100.7 ± 2.9; Damage Índex (DI) ± SD, MCF-7 (MCF-7 [9]; 100 μM): 154.7 ± 7.2; Concentrations that increase damage index (DI), SW620 (SW620 [10]): 50 µM and 100 µM; Damage Índex (DI) ± SD, SW620 (SW620 [10]; 1 μM): 16.7 ± 2.5; Damage Índex (DI) ± SD, SW620 (SW620 [10]; 10 μM): 21.3 ± 6.7; Damage Índex (DI) ± SD, SW620 (SW620 [10]; 50 μM): 107.0 ± 7.2; Damage Índex (DI) ± SD, SW620 (SW620 [10]; 100 μM): 212.3 ± 2.5
2 | 41.9 ± 9.7 µM | 10.5 µM | 111 ± 9.5 µM | 44.5 µM | CC(C)(C)c1cc(/C=N/c2cccc3cccnc23)c(O)c(C(C)(C)C)c1 [1b, [6-(C9H6N-8-(N=CH))-2,4-di-tert-butyl-(OHC6H2)]] | inability to be antioxidants | 69 ± 9 µM | 10 µM | 63.4 ± 5.5 µM | 15.5 µM | 1 µM | 10 µM | more potent inhibitory effect on the SW620 cells than on MRC-5 cells | 50 µM and 100 µM | 16.3 ± 2.5 | 20.0 ± 5.2 | 101.0 ± 5.0 | 135.0 ± 6.2 | 50 µM and 100 µM | 16.0 ± 4.0 | 22.3 ± 6.4 | ABTS+ radical scavenging activity ([2]; doses 1-200 µM): inactive at all doses; Inhibition of cell proliferation at the highest treatment concentrations tested (colony survival) (MRC-5 [11]): not statistically significant; Damage Índex (DI) ± SD, MCF-7 (MCF-7 [9]; 50 μM): 52.7 ± 9.5; Damage Índex (DI) ± SD, MCF-7 (MCF-7 [9]; 100 μM): 102.0 ± 6.0; Concentrations that increase damage index (DI), SW620 (SW620 [10]): ≥ 10 µM; Damage Índex (DI) ± SD, SW620 (SW620 [10]; 1 μM): 10.0 ± 1.0; Damage Índex (DI) ± SD, SW620 (SW620 [10]; 10 μM): 34.7 ± 7.4; Damage Índex (DI) ± SD, SW620 (SW620 [10]; 50 μM): 120.0 ± 5.3; Damage Índex (DI) ± SD, SW620 (SW620 [10]; 100 μM): 236.0 ± 8.2
3 |  |  |  |  | O=c1[nH]cc(F)c(=O)[nH]1 [5-Fluorouracil] |  |  |  |  |  |  |  |  |  |  |  |  |  |  |  |  | IC50 [12]: 4 µM
4 |  |  |  |  | O=C1O[C@H]([C@@H](O)CO)C(O)=C1O [Ascorbic acid, ascorbic acid, reference compound] |  |  |  |  |  |  |  |  |  |  |  |  |  |  |  |  | IC50 ([1]; concentration to decrease 50% of DPPH radical formation): 17 µM
5 |  |  |  |  | N.N.[Cl][Pt][Cl] [cisplatin] |  |  |  |  |  |  |  |  |  |  |  |  |  |  |  |  | IC50 [13]: 12.7 ± 0.1 µM
